Numbers after ± are expanded uncertainties.
Tests used:
[1] = cn = amount concentration of the nth substance listed, in mol/dm3; conditions: 101 kPa, Liquid, Alternating current cell with electrodes
[2] = mn = molality of the nth substance listed, in mol/kg; conditions: 298.15 K, 101 kPa, Liquid, Vibrating tube method

CCOS(=O)(=O)[O-].CCn1cc[n+](C)c1 [1-ethyl-3-methylimidazolium ethyl sulfate] + CC#N
molar conductivity [S·m2/mol], [1]
Conditions | 273.15 K | 278.15 K | 283.15 K | 288.15 K | 293.15 K | 298.15 K | 303.15 K | 308.15 K | 313.15 K
c1 = 0.3706 | 0.01282 ± 1.3e-05 | 0.01356 ± 1.4e-05 | 0.014309 ± 1.4e-05 | 0.015072 ± 1.5e-05 | 0.01584 ± 1.6e-05 | 0.01663 ± 1.7e-05 | 0.017423 ± 1.7e-05 | 0.018226 ± 1.8e-05 | 0.019045 ± 1.9e-05
c1 = 0.7493 | 0.01255 ± 1.3e-05 | 0.01327 ± 1.3e-05 | 0.014004 ± 1.4e-05 | 0.01475 ± 1.5e-05 | 0.0155 ± 1.6e-05 | 0.016262 ± 1.6e-05 | 0.01704 ± 1.7e-05 | 0.01782 ± 1.8e-05 | 0.01862 ± 1.9e-05
c1 = 1.176 | 0.012313 ± 1.2e-05 | 0.013021 ± 1.3e-05 | 0.01374 ± 1.4e-05 | 0.01447 ± 1.5e-05 | 0.015211 ± 1.5e-05 | 0.01596 ± 1.6e-05 | 0.01672 ± 1.7e-05 | 0.017492 ± 1.7e-05 | 0.018273 ± 1.8e-05
c1 = 1.698 | 0.012085 ± 1.2e-05 | 0.01278 ± 1.3e-05 | 0.013489 ± 1.3e-05 | 0.014207 ± 1.4e-05 | 0.01493 ± 1.5e-05 | 0.01567 ± 1.6e-05 | 0.016414 ± 1.6e-05 | 0.017171 ± 1.7e-05 | 0.01794 ± 1.8e-05
c1 = 2.185 | 0.01189 ± 1.2e-05 | 0.01258 ± 1.3e-05 | 0.013276 ± 1.3e-05 | 0.01398 ± 1.4e-05 | 0.0147 ± 1.5e-05 | 0.01542 ± 1.5e-05 | 0.016154 ± 1.6e-05 | 0.0169 ± 1.7e-05 | 0.01765 ± 1.8e-05
c1 = 2.695 | 0.01172 ± 1.2e-05 | 0.012392 ± 1.2e-05 | 0.013078 ± 1.3e-05 | 0.01377 ± 1.4e-05 | 0.01448 ± 1.5e-05 | 0.01519 ± 1.5e-05 | 0.01591 ± 1.6e-05 | 0.01664 ± 1.7e-05 | 0.017386 ± 1.7e-05
c1 = 3.269 | 0.01154 ± 1.2e-05 | 0.012206 ± 1.2e-05 | 0.01288 ± 1.3e-05 | 0.01357 ± 1.4e-05 | 0.014261 ± 1.4e-05 | 0.01496 ± 1.5e-05 | 0.01567 ± 1.6e-05 | 0.016396 ± 1.6e-05 | 0.017125 ± 1.7e-05
c1 = 3.882 | 0.011371 ± 1.1e-05 | 0.012029 ± 1.2e-05 | 0.0127 ± 1.3e-05 | 0.01337 ± 1.3e-05 | 0.014054 ± 1.4e-05 | 0.01475 ± 1.5e-05 | 0.015446 ± 1.5e-05 | 0.016155 ± 1.6e-05 | 0.01687 ± 1.7e-05
c1 = 4.671 | 0.01117 ± 1.1e-05 | 0.01182 ± 1.2e-05 | 0.01247 ± 1.3e-05 | 0.013136 ± 1.3e-05 | 0.01381 ± 1.4e-05 | 0.01449 ± 1.5e-05 | 0.015177 ± 1.5e-05 | 0.01588 ± 1.6e-05 | 0.01658 ± 1.7e-05
c1 = 5.374 | 0.011016 ± 1.1e-05 | 0.01165 ± 1.2e-05 | 0.0123 ± 1.2e-05 | 0.01295 ± 1.3e-05 | 0.01362 ± 1.4e-05 | 0.014287 ± 1.4e-05 | 0.01497 ± 1.5e-05 | 0.01566 ± 1.6e-05 | 0.01635 ± 1.6e-05
c1 = 5.987 | 0.01089 ± 1.1e-05 | 0.01152 ± 1.2e-05 | 0.012165 ± 1.2e-05 | 0.01281 ± 1.3e-05 | 0.01347 ± 1.3e-05 | 0.014134 ± 1.4e-05 | 0.0148 ± 1.5e-05 | 0.01549 ± 1.6e-05 | 0.016173 ± 1.6e-05
c1 = 6.546 | 0.01079 ± 1.1e-05 | 0.011417 ± 1.1e-05 | 0.012051 ± 1.2e-05 | 0.01269 ± 1.3e-05 | 0.013343 ± 1.3e-05 | 0.014 ± 1.4e-05 | 0.01467 ± 1.5e-05 | 0.015338 ± 1.5e-05 | 0.016021 ± 1.6e-05

[2]
Conditions | mass density [kg/m3]
m1 = 0.006546 | 777.183 ± 10
m1 = 0.1445 | 788.755 ± 10

CCOS(=O)(=O)[O-].CCn1cc[n+](C)c1 [1-ethyl-3-methylimidazolium ethyl sulfate] + ClCCl
molar conductivity [S·m2/mol], [1]
Conditions | 273.15 K | 278.15 K | 283.15 K | 288.15 K | 293.15 K | 298.15 K | 303.15 K | 308.15 K
c1 = 0.5399 | 0.0004064 ± 4e-07 | 0.0004194 ± 4e-07 | 0.0004324 ± 4e-07 | 0.0004454 ± 4e-07 | 0.0004554 ± 5e-07 | 0.000462 ± 5e-07 | 0.000471 ± 5e-07 | 0.0004771 ± 5e-07
c1 = 0.8656 | 0.0003364 ± 3e-07 | 0.0003471 ± 4e-07 | 0.0003579 ± 4e-07 | 0.0003684 ± 4e-07 | 0.0003768 ± 4e-07 | 0.0003829 ± 4e-07 | 0.0003904 ± 4e-07 | 0.0003958 ± 4e-07
c1 = 1.152 | 0.0003033 ± 3e-07 | 0.0003131 ± 3e-07 | 0.0003228 ± 3e-07 | 0.0003322 ± 3e-07 | 0.0003398 ± 3e-07 | 0.0003455 ± 3e-07 | 0.0003521 ± 4e-07 | 0.0003571 ± 4e-07
c1 = 1.504 | 0.0002764 ± 3e-07 | 0.0002855 ± 3e-07 | 0.0002943 ± 3e-07 | 0.0003028 ± 3e-07 | 0.0003098 ± 3e-07 | 0.0003152 ± 3e-07 | 0.0003212 ± 3e-07 | 0.0003258 ± 3e-07
c1 = 1.808 | 0.0002603 ± 3e-07 | 0.0002689 ± 3e-07 | 0.0002772 ± 3e-07 | 0.0002852 ± 3e-07 | 0.0002918 ± 3e-07 | 0.0002971 ± 3e-07 | 0.0003029 ± 3e-07 | 0.0003073 ± 3e-07
c1 = 2.099 | 0.0002493 ± 3e-07 | 0.0002575 ± 3e-07 | 0.0002653 ± 3e-07 | 0.000273 ± 3e-07 | 0.0002794 ± 3e-07 | 0.0002845 ± 3e-07 | 0.00029 ± 3e-07 | 0.0002942 ± 3e-07
c1 = 2.376 | 0.0002409 ± 2e-07 | 0.0002489 ± 3e-07 | 0.0002566 ± 3e-07 | 0.000264 ± 3e-07 | 0.0002702 ± 3e-07 | 0.0002753 ± 3e-07 | 0.0002806 ± 3e-07 | 0.0002849 ± 3e-07
c1 = 2.723 | 0.0002334 ± 2e-07 | 0.0002412 ± 2e-07 | 0.0002486 ± 3e-07 | 0.0002557 ± 3e-07 | 0.0002618 ± 3e-07 | 0.0002668 ± 3e-07 | 0.000272 ± 3e-07 | 0.0002762 ± 3e-07
c1 = 3.074 | 0.0002276 ± 2e-07 | 0.0002352 ± 2e-07 | 0.0002425 ± 2e-07 | 0.0002494 ± 3e-07 | 0.0002554 ± 3e-07 | 0.0002604 ± 3e-07 | 0.0002655 ± 3e-07 | 0.0002698 ± 3e-07
c1 = 3.333 | 0.000224 ± 2e-07 | 0.0002315 ± 2e-07 | 0.0002387 ± 2e-07 | 0.0002455 ± 3e-07 | 0.0002514 ± 3e-07 | 0.0002564 ± 3e-07 | 0.0002615 ± 3e-07 | 0.0002657 ± 3e-07
c1 = 3.607 | 0.0002213 ± 2e-07 | 0.0002288 ± 2e-07 | 0.0002359 ± 2e-07 | 0.0002427 ± 2e-07 | 0.0002488 ± 3e-07 | 0.0002538 ± 3e-07 | 0.0002588 ± 3e-07 | 0.000263 ± 3e-07
c1 = 3.931 | 0.000219 ± 2e-07 | 0.0002264 ± 2e-07 | 0.0002334 ± 2e-07 | 0.0002401 ± 2e-07 | 0.0002459 ± 3e-07 | 0.000251 ± 3e-07 | 0.000256 ± 3e-07 | 0.0002601 ± 3e-07

CCOS(=O)(=O)[O-].CCn1cc[n+](C)c1 [1-ethyl-3-methylimidazolium ethyl sulfate] + O
molar conductivity [S·m2/mol], [1]
Conditions | c1 = 0.6368 | c1 = 1.07 | c1 = 1.527 | c1 = 1.991 | c1 = 2.48 | c1 = 3.114 | c1 = 3.767 | c1 = 4.385 | c1 = 5.086
278.15 K | 0.00496 ± 5e-06 | 0.0049391 ± 4.9e-06 | 0.0049163 ± 4.9e-06 | 0.004892 ± 4.9e-06 | 0.004877 ± 4.9e-06 | 0.0048486 ± 4.8e-06 | 0.0048261 ± 4.8e-06 | 0.00479 ± 4.8e-06 | 0.004783 ± 4.8e-06
283.15 K | 0.0057155 ± 5.7e-06 | 0.00569 ± 5.7e-06 | 0.005664 ± 5.7e-06 | 0.0056374 ± 5.6e-06 | 0.0056159 ± 5.6e-06 | 0.005585 ± 5.6e-06 | 0.005559 ± 5.6e-06 | 0.0055336 ± 5.5e-06 | 0.0055088 ± 5.5e-06
288.15 K | 0.0065118 ± 6.5e-06 | 0.00648 ± 6.5e-06 | 0.0064496 ± 6.4e-06 | 0.0064206 ± 6.4e-06 | 0.006395 ± 6.4e-06 | 0.00636 ± 6.4e-06 | 0.0063311 ± 6.3e-06 | 0.0063021 ± 6.3e-06 | 0.006274 ± 6.3e-06
293.15 K | 0.0073408 ± 7.3e-06 | 0.0073039 ± 7.3e-06 | 0.007271 ± 7.3e-06 | 0.0072366 ± 7.2e-06 | 0.0072073 ± 7.2e-06 | 0.007169 ± 7.2e-06 | 0.007135 ± 7.1e-06 | 0.0071023 ± 7.1e-06 | 0.007071 ± 7.1e-06
298.15 K | 0.0082055 ± 8.2e-06 | 0.008163 ± 8.2e-06 | 0.008125 ± 8.1e-06 | 0.008088 ± 8.1e-06 | 0.008054 ± 8.1e-06 | 0.0080112 ± 8e-06 | 0.007974 ± 8e-06 | 0.0079372 ± 7.9e-06 | 0.0079028 ± 7.9e-06
303.15 K | 0.009098 ± 9.1e-06 | 0.009052 ± 9.1e-06 | 0.0090088 ± 9e-06 | 0.008967 ± 9e-06 | 0.00893 ± 8.9e-06 | 0.008882 ± 8.9e-06 | 0.0088395 ± 8.8e-06 | 0.008799 ± 8.8e-06 | 0.008761 ± 8.8e-06
308.15 K | 0.010022 ± 1e-05 | 0.00997 ± 1e-05 | 0.0099213 ± 9.9e-06 | 0.009875 ± 9.9e-06 | 0.0098348 ± 9.8e-06 | 0.009782 ± 9.8e-06 | 0.0097357 ± 9.7e-06 | 0.009689 ± 9.7e-06 | 0.0096453 ± 9.6e-06
313.15 K | 0.01096 ± 1.1e-05 | 0.01092 ± 1.1e-05 | 0.01086 ± 1.1e-05 | 0.01081 ± 1.1e-05 | 0.01076 ± 1.1e-05 | 0.01071 ± 1.1e-05 | 0.01066 ± 1.1e-05 | 0.01061 ± 1.1e-05 | 0.01056 ± 1.1e-05

[2]
Conditions | mass density [kg/m3]
m1 = 0.005086 | 997.281 ± 10
m1 = 0.06934 | 1000.11 ± 10

Reference: the NIST ThermoML archive (doi:10.1021/je101130e)
